Reference: US9249131B2, “Modulators of ATP-binding cassette transporters” (Vertex Pharmaceuticals Incorporated, priority 2003, dated 2016)

Biological target: T1, ΔF508-CFTR (Homo sapiens, UniProt P13569, DEL508-508)
T1 construct: expressed in transfected cells; host or cells: NIH3T3 mouse fibroblasts stably expressing ΔF508-CFTR for the optical, whole-cell and single-channel assays; Fisher rat epithelial (FRT) cells for Ussing chamber follow-up
Assay: Assays for ΔF508-CFTR correction and potentiator properties (membrane potential optical and electrophysiological methods)
Assay type: cell-based
Conditions: CFTR modulation; for % Activity: % Efficacy; for EC50: tested using the above methods
Description: Assays for Detecting and Measuring ΔF508-CFTR Correction and Potentiator Properties of Compounds
A) Membrane Potential Optical Methods for Assaying ΔF508-CFTR Modulation Properties of Compounds
The optical membrane potential assay utilized voltage-sensitive FRET sensors described by Gonzalez and Tsien (See, Gonzales, J. E. and R. Y. Tsien (1995) “Voltage sensing by fluorescence resonance energy transfer in single cells” Biophys J 69 (4): 1272-80, and Gonzalez, J. E. and R. Y. Tsien (1997) “Improved indicators of cell membrane potential that use fluorescence resonance energy transfer” Chem Biol 4 (4): 269-77) in combination with instrumentation for measuring fluorescence changes such as the Voltage/Ion Probe Reader (VIPR) (See, Gonzalez, J. E., K. Oades, et al. (1999) “Cell-based assays and instrumentation for screening ion-channel targets” Drug Discov Today 4 (9): 431-439).
These voltage sensitive assays are based on the change in fluorescence resonant energy transfer (FRET) between the membrane-soluble, voltage-sensitive dye, DiSBAC2 (3), and a fluorescent phospholipid, CC2-DMPE, which is attached to the outer leaflet of the plasma membrane and acts as a FRET donor. Changes in membrane potential (Vm) cause the negatively charged DiSBAC2(3) to redistribute across the plasma membrane and the amount of energy transfer from CC2-DMPE changes accordingly. The changes in fluorescence emission were monitored using VIPR™ II, which is an integrated liquid handler and fluorescent detector designed to conduct cell-based screens in 96- or 384-well microtiter plates.
To identify small molecules that correct the trafficking defect associated with ΔF508-CFTR; a single-addition HTS assay format was developed. The cells were incubated in serum-free medium for 16 hrs at 37° C. in the presence or absence (negative control) of test compound. As a positive control, cells plated in 384-well plates were incubated for 16 hrs at 27° C. to “temperature-correct” ΔF508-CFTR. The cells were subsequently rinsed 3× with Krebs Ringers solution and loaded with the voltage-sensitive dyes. To activate ΔF508-CFTR, […] and the CFTR potentiator, genistein ([…]), were added along with Cl^−-free medium to each well. The addition of Cl^−-free medium promoted Cl^− efflux in response to ΔF508-CFTR activation and the resulting membrane depolarization was optically monitored using the FRET-based voltage-sensor dyes.
To identify potentiators of ΔF508-CFTR, a double-addition HTS assay format was developed. During the first addition, a Cl^−-free medium with or without test compound was added to each well. After 22 sec, a second addition of Cl^−-free medium containing 2-10 µM forskolin was added to activate ΔF508-CFTR. The extracellular Cl^− concentration following both additions was 28 mM, which promoted Cl^− efflux in response to ΔF508-CFTR activation and the resulting membrane depolarization was optically monitored using the FRET-based voltage-sensor dyes.
• Bath Solution #1: (in mM) NaCl 160, KCl 4.5, CaCl2 2, MgCl2 1, HEPES 10, pH 7.4 with NaOH. • Chloride-free bath solution: Chloride salts in Bath Solution #1 are substituted with gluconate salts. • CC2-DMPE: Prepared as a 10 mM stock solution in DMSO and stored at −20° C. • DiSBAC2(3): Prepared as a 10 mM stock in DMSO and stored at −20° C. Cell Culture
NIH3T3 mouse fibroblasts stably expressing ΔF508-CFTR are used for optical measurements of membrane potential. The cells are maintained at 37° C. in 5% CO2 and 90% humidity in Dulbecco's modified Eagle's medium supplemented with 2 mM glutamine, 10% fetal bovine serum, 1×NEAA, β-ME, 1×pen/strep, and 25 mM HEPES in 175 cm^2 culture flasks. For all optical assays, the cells were seeded at 30,000/well in 384-well matrigel-coated plates and cultured for 2 hrs at 37° C. before culturing at 27° C. for 24 hrs. for the potentiator assay. For the correction assays, the cells are cultured at 27° C. or 37° C. with and without compounds for 16-24 hours.

T1 sequence (P13569 with tags, fused parts or gaps DEL508-508): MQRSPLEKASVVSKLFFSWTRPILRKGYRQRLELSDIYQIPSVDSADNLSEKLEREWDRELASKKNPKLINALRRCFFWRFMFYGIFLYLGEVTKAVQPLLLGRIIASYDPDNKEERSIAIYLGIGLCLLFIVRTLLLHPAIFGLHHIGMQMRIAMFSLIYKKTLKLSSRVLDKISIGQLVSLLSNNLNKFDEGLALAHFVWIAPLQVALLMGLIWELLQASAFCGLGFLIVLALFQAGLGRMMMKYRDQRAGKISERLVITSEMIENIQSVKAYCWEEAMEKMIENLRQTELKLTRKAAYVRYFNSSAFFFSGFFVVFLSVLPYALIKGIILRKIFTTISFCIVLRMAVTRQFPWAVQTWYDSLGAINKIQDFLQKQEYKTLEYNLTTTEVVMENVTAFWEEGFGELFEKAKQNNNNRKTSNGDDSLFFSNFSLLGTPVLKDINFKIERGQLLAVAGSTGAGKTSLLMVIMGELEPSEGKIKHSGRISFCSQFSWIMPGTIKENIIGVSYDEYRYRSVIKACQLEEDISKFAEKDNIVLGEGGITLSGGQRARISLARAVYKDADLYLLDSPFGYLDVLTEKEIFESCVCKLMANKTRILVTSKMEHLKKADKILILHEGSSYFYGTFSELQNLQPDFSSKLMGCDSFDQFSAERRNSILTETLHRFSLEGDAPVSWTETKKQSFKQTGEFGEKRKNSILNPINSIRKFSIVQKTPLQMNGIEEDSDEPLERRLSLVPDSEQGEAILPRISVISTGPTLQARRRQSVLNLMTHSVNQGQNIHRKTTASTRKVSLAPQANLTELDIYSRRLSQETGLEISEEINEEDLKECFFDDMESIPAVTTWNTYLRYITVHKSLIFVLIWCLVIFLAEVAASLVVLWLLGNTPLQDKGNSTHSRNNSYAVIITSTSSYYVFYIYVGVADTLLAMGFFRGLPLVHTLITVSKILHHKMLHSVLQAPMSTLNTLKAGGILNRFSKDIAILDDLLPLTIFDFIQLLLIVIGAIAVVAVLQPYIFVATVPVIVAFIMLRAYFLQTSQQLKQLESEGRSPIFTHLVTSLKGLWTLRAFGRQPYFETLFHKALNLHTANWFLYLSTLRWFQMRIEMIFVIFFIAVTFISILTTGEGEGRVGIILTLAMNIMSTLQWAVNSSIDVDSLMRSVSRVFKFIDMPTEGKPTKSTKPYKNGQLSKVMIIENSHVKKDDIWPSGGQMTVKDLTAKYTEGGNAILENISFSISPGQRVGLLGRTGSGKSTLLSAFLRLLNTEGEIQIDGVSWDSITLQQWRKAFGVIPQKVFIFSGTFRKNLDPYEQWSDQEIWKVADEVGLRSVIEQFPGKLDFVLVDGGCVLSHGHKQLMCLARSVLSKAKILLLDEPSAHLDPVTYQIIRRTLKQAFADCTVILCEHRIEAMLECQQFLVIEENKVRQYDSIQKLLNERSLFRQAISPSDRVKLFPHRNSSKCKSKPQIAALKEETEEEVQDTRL

Compound	% Activity	EC50 [µM]
Cc1ccc(-c2csc(NC(=O)c3ccccc3)n2)cc1 [compound 48]	+++ (“+++” means >100%)	< 10
COc1cccc(C(=O)Nc2nc(-c3ccccc3)cs2)c1 [compound 49]	++ (“++” means between 25% to 100%)	10 to 25
CCC(=O)Nc1nc(-c2ccccc2)c(-c2ccccc2)s1 [compound 50]	+++ (“+++” means >100%)	< 10
COc1ccccc1C(=O)Nc1nc(-c2ccccc2)c(-c2ccccc2)s1 [compound 51]	+++ (“+++” means >100%)	< 10
Cc1ccc(C(=O)Nc2nc(-c3ccccc3)c(-c3ccccc3)s2)cc1 [compound 52]	+++ (“+++” means >100%)	< 10
O=C(Nc1nc(-c2ccccc2)cs1)c1cccc(Cl)c1 [compound 53]	+++ (“+++” means >100%)	< 10
Cc1cccc(Cc2cnc(NC(=O)c3ccccc3Cl)s2)c1 [compound 54]	++ (“++” means between 25% to 100%)	10 to 25
O=C(Nc1nc(-c2ccccc2)cs1)C1CCCCC1 [compound 55]	++ (“++” means between 25% to 100%)	10 to 25
O=C(Nc1ncc(Cc2cccc(Cl)c2Cl)s1)C(c1ccccc1)c1ccccc1 [compound 56]	++ (“++” means between 25% to 100%)	< 10
O=C(Nc1ncc(Cc2cc(Cl)ccc2Cl)s1)C(c1ccccc1)c1ccccc1 [compound 57]	++ (“++” means between 25% to 100%)	< 10
CCC(C(=O)Nc1nc(-c2ccncc2)cs1)c1ccccc1 (centres unmarked) [compound 58]	++ (“++” means between 25% to 100%)	10 to 25
O=C(O)c1ccccc1C(=O)Nc1nc(-c2ccccc2)c(-c2ccccc2)s1 [compound 59]	++ (“++” means between 25% to 100%)	10 to 25
CC(CC(=O)O)CC(=O)Nc1nc(-c2ccccc2)c(-c2ccccc2)s1 (centres unmarked) [compound 60]	++ (“++” means between 25% to 100%)	10 to 25
O=C(O)CCCC(=O)Nc1nc(-c2ccccc2)c(-c2ccccc2)s1 [compound 61]	++ (“++” means between 25% to 100%)	10 to 25
O=C(Nc1nc(-c2ccccc2)c(-c2ccccc2)s1)c1c(F)cccc1F [compound 62]	+++ (“+++” means >100%)	< 10
CCc1ccccc1OCC(=O)Nc1nc2ccccc2s1 [compound 63]	+++ (“+++” means >100%)	10 to 25
Cc1nc(NC(=O)COc2ccccc2C(C)C)sc1C [compound 64]	+++ (“+++” means >100%)	< 10
O=C(CN1CCCCC1)Nc1ncc(Cc2cccc3ccccc23)s1 [compound 65]	++ (“++” means between 25% to 100%)	10 to 25
Cc1ccc(C(=O)Nc2nc(C)c(C)s2)cc1 [compound 66]	++ (“++” means between 25% to 100%)	10 to 25
Cc1ccc(C(=O)Nc2nc(-c3ccccc3)cs2)cc1 [compound 67]	++ (“++” means between 25% to 100%)	10 to 25
O=C(Nc1nc(-c2ccccc2)c(-c2ccccc2)s1)c1ccccc1 [compound 68]	++ (“++” means between 25% to 100%)	< 10
COc1ccccc1-c1csc(NC(=O)c2ccccc2)n1 [compound 69]	+++ (“+++” means >100%)	10 to 25
Cc1cccc(C(=O)Nc2nc(-c3ccccc3)c(-c3ccccc3)s2)c1 [compound 70]	+++ (“+++” means >100%)	< 10

Compound	% Activity	EC50 [µM]
Cc1ccccc1C(=O)Nc1nc(-c2ccccc2)c(-c2ccccc2)s1 [compound 71]	++ (“++” means between 25% to 100%)	< 10
COc1ccc(C(=O)Nc2nc(-c3ccccc3)c(-c3ccccc3)s2)cc1 [compound 72]	+++ (“+++” means >100%)	< 10
O=C(Nc1nc(-c2ccccc2)c(-c2ccccc2)s1)c1ccc(Cl)c(Cl)c1 [compound 73]	++ (“++” means between 25% to 100%)	10 to 25
O=C(Nc1nc(-c2ccccc2)c(-c2ccccc2)s1)c1ccc(Cl)cc1 [compound 74]	++ (“++” means between 25% to 100%)	10 to 25
Cc1ccccc1C(=O)Nc1nc(-c2ccccc2)cs1 [compound 75]	++ (“++” means between 25% to 100%)	10 to 25
COc1ccccc1C(=O)Nc1nc(-c2ccccc2)cs1 [compound 76]	+++ (“+++” means >100%)	10 to 25
O=C(Nc1nc(-c2ccccc2)cs1)c1ccccc1Cl [compound 77]	++ (“++” means between 25% to 100%)	10 to 25
COc1ccc(C(=O)Nc2nc(-c3ccccc3)cs2)cc1 [compound 78]	++ (“++” means between 25% to 100%)	10 to 25
COc1ccccc1C(=O)Nc1nc(-c2ccccc2OC)cs1 [compound 79]	++ (“++” means between 25% to 100%)	10 to 25
COc1cccc(-c2csc(NC(=O)c3ccccc3OC)n2)c1 [compound 80]	++ (“++” means between 25% to 100%)	10 to 25
COc1cccc(-c2csc(NC(=O)c3ccccc3)n2)c1 [compound 81]	++ (“++” means between 25% to 100%)	10 to 25
COc1cccc(C(=O)Nc2nc(-c3cccc(OC)c3)cs2)c1 [compound 82]	++ (“++” means between 25% to 100%)	10 to 25
COc1cccc(-c2csc(NC(=O)c3ccc(C)cc3)n2)c1 [compound 83]	+++ (“+++” means >100%)	10 to 25
COc1ccc(C(=O)Nc2nc(-c3cccc(OC)c3)cs2)cc1 [compound 84]	++ (“++” means between 25% to 100%)	10 to 25
CC(C)C(=O)Nc1nc(-c2ccccc2)cs1 [compound 85]	++ (“++” means between 25% to 100%)	10 to 25
CC(C)CC(=O)Nc1nc(-c2ccccc2)cs1 [compound 86]	++ (“++” means between 25% to 100%)	10 to 25
CC(C)(C)C(=O)Nc1nc(-c2ccccc2)cs1 [compound 87]	++ (“++” means between 25% to 100%)	10 to 25
Cc1cccc(C(=O)Nc2nc(-c3ccccc3)cs2)c1 [compound 88]	+++ (“+++” means >100%)	10 to 25
O=C(Nc1ncc(Cc2ccccc2)s1)C1c2ccccc2Oc2ccccc21 [compound 89]	+++ (“+++” means >100%)	< 10
O=C(Nc1ncc(Cc2ccccc2Cl)s1)C1c2ccccc2Oc2ccccc21 [compound 90]	+++ (“+++” means >100%)	< 10
O=C(Nc1ncc(Cc2ccccc2Cl)s1)C(c1ccccc1)C1CCCCC1 (centres unmarked) [compound 91]	+++ (“+++” means >100%)	< 10
O=C(Nc1ncc(Cc2ccccc2)o1)C(c1ccccc1)C1CCCCC1 (centres unmarked) [compound 92]	++ (“++” means between 25% to 100%)	< 10
O=C(Nc1ncc(Cc2ccccc2)s1)C1c2ccccc2-c2ccccc21 [compound 93]	+++ (“+++” means >100%)	< 10
